Experimental data as given in PubChem BioAssay (NCI).
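Grown in 96-well plates, cells were treated for 48 hours with each compound at five concentrations. Insufficient inhibition: endpoint recorded as highest concentration tested. GI50: concentration for 50% inhibition of growth. The concentration for full growth arrest is given as TGI.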

Legend:
Test in all cases: NCI anticancer screen, dose series, 48 h
786-0 renal = system: 786-0 renal
A498 renal = system: A498 renal
A549 NSCLC = system: A549 NSCLC
ACHN renal = system: ACHN renal
BT-549 breast = system: BT-549 breast
CAKI-1 renal = system: CAKI-1 renal
CCRF-CEM leukemia = system: CCRF-CEM leukemia
COLO 205 colon = system: COLO 205 colon
DU-145 prostate = system: DU-145 prostate
HCC-2998 colon = system: HCC-2998 colon
HCT-116 colon = system: HCT-116 colon
HCT-15 colon = system: HCT-15 colon
HL-60(TB) leukemia = system: HL-60(TB) leukemia
HOP-62 NSCLC = system: HOP-62 NSCLC
HOP-92 NSCLC = system: HOP-92 NSCLC
HS 578T breast = system: HS 578T breast
HT29 colon = system: HT29 colon
IGROV1 ovarian = system: IGROV1 ovarian
K-562 leukemia = system: K-562 leukemia
KM12 colon = system: KM12 colon
LOX IMVI melanoma = system: LOX IMVI melanoma
M14 melanoma = system: M14 melanoma
MALME-3M melanoma = system: MALME-3M melanoma
MCF7 breast = system: MCF7 breast
MDA-MB-231 breast = system: MDA-MB-231 breast
MDA-MB-435 = system: MDA-MB-435
MOLT-4 leukemia = system: MOLT-4 leukemia
NCI-H226 lung = system: NCI-H226 lung
NCI-H23 lung = system: NCI-H23 lung

## COc1ccc(Nc2nc(NCCNc3ccnc4cc(Cl)ccc34)nc(N3CCOCC3)n2)cc1
786-0 renal
  GI50: 2.11 µM
  TGI: 12.3 µM
A498 renal
  GI50: 0.272 µM
  TGI: 2.19 µM
A549 NSCLC
  GI50: 4.87 µM
  TGI: 20.3 µM
ACHN renal
  GI50: 4.77 µM
  TGI: 18.1 µM
BT-549 breast
  GI50: 9.92 µM
  TGI: 22.1 µM
CAKI-1 renal
  GI50: 4.17 µM
  TGI: 17.5 µM
CCRF-CEM leukemia
  GI50: 2.95 µM
  TGI: 15.4 µM
COLO 205 colon
  GI50: 1.53 µM
  TGI: 3.33 µM
DU-145 prostate
  GI50: 9.8 µM
  TGI: 21.9 µM
HCC-2998 colon
  GI50: 2.08 µM
  TGI: 3.88 µM
HCT-116 colon
  GI50: 3.01 µM
  TGI: 14.8 µM
HCT-15 colon
  GI50: 2.63 µM
  TGI: 10.9 µM
HL-60(TB) leukemia
  GI50: 1.13 µM
  TGI: 12.7 µM
HOP-62 NSCLC
  GI50: 8.09 µM
  TGI: 21.6 µM
HOP-92 NSCLC
  GI50: 1.16 µM
  TGI: 13 µM
HS 578T breast
  GI50: 3.91 µM
  TGI: 24.1 µM
HT29 colon
  GI50: 1.07 µM
  TGI: 3.75 µM
IGROV1 ovarian
  GI50: 8.43 µM
  TGI: 23.4 µM
K-562 leukemia
  GI50: 2.09 µM
  TGI: 7.82 µM
KM12 colon
  GI50: 5.18 µM
  TGI: 18 µM
LOX IMVI melanoma
  GI50: 3.01 µM
  TGI: 10.6 µM
M14 melanoma
  GI50: 1.86 µM
  TGI: 3.47 µM
MALME-3M melanoma
  GI50: 1.94 µM
  TGI: 3.47 µM
MCF7 breast
  GI50: 2.86 µM
  TGI: 12.8 µM
MDA-MB-231 breast
  GI50: 2.73 µM
  TGI: 10.2 µM
MDA-MB-435
  GI50: 1.82 µM
  TGI: 3.49 µM
MOLT-4 leukemia
  GI50: 2.01 µM
  TGI: 11.2 µM
NCI-H226 lung
  GI50: 3.89 µM
  TGI: 18.3 µM
NCI-H23 lung
  GI50: 13.7 µM
